Results published in article PMC7484352 (Archives of biochemistry and biophysics, 2020).

Biological target: T1, bDAD (DAD V1M) (Burkholderia sp. AZ11, UniProt F7J5X4, V1M)
T1 sequence (F7J5X4 1-177): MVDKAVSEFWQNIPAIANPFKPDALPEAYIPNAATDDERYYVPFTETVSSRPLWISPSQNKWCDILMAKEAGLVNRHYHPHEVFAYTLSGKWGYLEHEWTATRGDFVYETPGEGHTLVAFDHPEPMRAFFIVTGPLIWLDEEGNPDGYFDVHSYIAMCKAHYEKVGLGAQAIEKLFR
Assay: UV absorbance at […] nm, DHA consumption
Type: biochemical

Work on `O=C(O)c1ccc(O)cc1` [4HB, 4-hydroxybenzoic acid] yielded a Ki of 1100 ± 400 µM.
